From US20050009902A1, “Remedies for pruritus” (priority 2001, published 2005)

Key:
Type in all cases: in vivo, guinea pig
[1] = system: platelet activating factor (PAF)-induced models; assay: Ocular pruritus inhibition activity to platelet activating factor-induced models; conditions: for Eye scratching inhibition rate: 8 eyes; for Number of eye scratchings in comparison with the controls (in words): instilled suspensions, extent depends approximately on concentration
Method: The ocular pruritus inhibition activity to platelet activating factor (PAF)-induced models was examined using anandamide (test compound A), indometacin morpholinylamide (test compound B) and N-(benzo[d][1,3]dioxol-5-ylmethyl)-7-methoxy-2-oxo-8-penty loxy-1,2-dihydroquinoline-3-carboxamide (test compound C).
Test compound A (50 mg/ml in EtOH) was suspended in a physiological saline at a concentration of 0.01% (w/v). Test compound B was suspended in a 1.0% Tween 80/physiological saline at a concentration of 0.001% or 0.01% (w/v). Test compound C was suspended in a 5.0% Tween 80/physiolosical saline at a concentration of 0.0001%, 0.001% or 0.01% (w/v). In this manner, the test compound suspensions were prepared.
With respect to test compounds A and B, each of the test compound suspensions was instilled into both eyes of a 5-week-old male Hartley guinea pig in 10 μL/one eye. Ten minutes later, each of the test compound suspensions was instilled thereinto at the same concentration (twice in total). With respect to test compound C, the test compound suspension was instilled into both eyes of the 5-week-old male Hartley guinea pig in 10 μL/one eye.
Subsequently, with respect to test compounds A and B, a physiological saline containing 0.1% (w/v) of the platelet activating factor was instilled in 10 μL/one eye into both eyes of the guinea pig after 5 minutes from the second instilling of the respective test compound suspensions. With respect to test compound C, the same physiological saline was instilled in 10 μL/one eye into both eyes of the guinea pig after 15 minutes from the instilling of the test compound suspension. In this manner, the eye scratching action was induced. As controls of test compounds A, B and C, a 2.0% ethanol/physiological saline, a physiological saline and a 5.0% Tween 80/physiological saline were used respectively.
The behavior of the guinea pig after instilling the platelet activating factor was videotaped, and the ocular pruritus was evaluated for each eye by counting the number of actions of scratching the eye with the hind foot. The average value of the eye scratching inhibition rate for 30 minutes after instilling the platelet activating factor is shown in Table 3. In each example, 8 eyes are used.

[2] = system: allergic conjunctivitis models; assay: Ocular pruritus inhibition activity to allergic conjunctivitis models; conditions: for Eye scratching inhibition rate: 0.1% (w/v) instilled twice before ovalbumin, 30 minutes, 12 eyes
Method: Aluminum hydroxide gel-adsorbed ovalbumin (20 μg/mL) was dissolved in a physiological saline, and the resulting solution was subconjunctivally injected into both eyes of a 4-week-old male Hartley guinea pig in 100-μL portions for active sensitization. On days 14, 16, 18, 21, 23 and 25 after the sensitization, a physiological saline containing 2.5% (w/v) ovalbumin was instilled into both eyes in 10 μL/one eye to induce allergic conjunctivitis. A physiological saline was used as a control.
Five minutes and 15 minutes (twice in total) before the instilling of ovalbumin on days 16, 18, 21, 23 and 25 after the sensitization, a suspension of 0.1% (w/v) palmidrol in a physiological saline was instilled into both eyes of the guinea pig in 10 μL/one eye.
The behavior of the guinea pig for 30 minutes after the instilling of ovalbumin on days 21, 23 and 25 after the sensitization were videotaped, and the ocular pruritus was evaluated by counting the number of eye scratchings in case of instilling palmidrol and a control. In each example, 12 eyes are used.

[3] = system: histamine-induced models; assay: Ocular pruritus inhibition activity to histamine-induced models; conditions: for Number of eye scratchings: 10 μL/one eye, average, 12 eyes, control 22.8; for Number of eye scratchings / Eye scratching inhibition rate: 30 minutes after 1.0% histamine; for Eye scratching inhibition rate: vs physiological saline control
Method: Palmidrol was suspended in a physiological saline at a concentration of 0.1% or 0.5%(w/v), and the resulting suspension was instilled into both eyes of a 5-week-old male Hartley guinea pig in 10 μL/one eye. After 10 minutes, the palmidrol suspension at the same concentration was also instilled thereinto (twice in total). A physiological saline was used as a control.
After 5 minutes from the second instilling of palmidrol, a physiological saline containing 1.0% (w/v) histamine was instilled into both eyes of the guinea pig in 10 μL/one eye to induce eye scratching action.
The behavior of the guinea pig after administering histamine was videotaped, and the ocular pruritus was evaluated on each eye by counting actions of scratching the eye with the hind foot. The average value of the number of eye scratchings for 30 minutes after administering histamine and the eye scratching inhibition rate are shown in Table 1. In each example, 12 eyes are used.
Eye scratching inhibition rate=100−(number of eye scratchings with test compound)/(number of eye scratchings with control)×100

[4] = 0.01% (w/v) suspension instilled twice, 30 minutes after 0.1% PAF
[5] = 0.1% (w/v) suspension instilled twice
[6] = 0.5% (w/v) suspension instilled twice

`CCCCC/C=C\C/C=C\C/C=C\C/C=C\CCCC(=O)NCCO` [Test compound A, anandamide] was tested, and the “Eye scratching inhibition rate” value [1, 4] was 40.9% and the “Number of eye scratchings in comparison with the controls (in words)” value (shortened to “Number … with the controls (in words)”) [1] was “markedly decreased”.
`CCCCCOc1c(OC)ccc2cc(C(=O)NCc3ccc4c(c3)OCO4)c(=O)[nH]c12` [Test Compound C, N-(benzo[d][1,3]dioxol-5-ylmethyl)-7-methoxy-2-oxo-8-pentyloxy-1,2-dihydroquinoline-3-carboxamide] was tested, and the “Eye scratching inhibition rate” value ([1]; 0.0001% (w/v) suspension instilled once, 15 minutes before 0.1% PAF, 30 minutes) was 22.7%, the “Eye scratching inhibition rate” value ([1]; 0.001% (w/v) suspension instilled once, 15 minutes before 0.1% PAF, 30 minutes) was 34.3% and the “Eye scratching inhibition rate” value ([1]; 0.01% (w/v) suspension instilled once, 15 minutes before 0.1% PAF, 30 minutes) was 44.2%. For the same compound, the “Number … with the controls (in words)” value [1] was “markedly decreased”.
For `COc1ccc2c(c1)c(CC(=O)N1CCOCC1)c(C)n2C(=O)c1ccc(Cl)cc1` [Test compound B, indometacin morpholinylamide], the “Eye scratching inhibition rate” value ([1]; 0.001% (w/v) suspension instilled twice, 30 minutes after 0.1% PAF) was 38.7%, the “Eye scratching inhibition rate” value [1, 4] was 52.9% and the “Number … with the controls (in words)” value [1] was “markedly decreased”.
With `CCCCCCCCCCCCCCCC(=O)NCCO` [Palmidrol, N-palmitoyl-ethanolamide] the “Eye scratching inhibition rate” value ([2]; Day 21 after sensitization) was 41.5%, the “Eye scratching inhibition rate” value ([2]; Day 23 after sensitization) was 52.3% and the “Eye scratching inhibition rate” value ([2]; Day 25 after sensitization) was 51.7%. The “Eye scratching action in comparison with the control (in words)” value ([2]; 0.1% instilled) was “significantly inhibited”, the “Number of eye scratchings” value [3, 5] was 8.5 times and the “Eye scratching inhibition rate” value [3, 5] was 62.8%. The “Number of eye scratchings” value [3, 6] was 3.8 times, the “Eye scratching inhibition rate” value [3, 6] was 83.2% and the “Number of eye scratchings in comparison with the control (in words)” value ([3]; instilled 0.1% or 0.5%, extent depends on concentration) was “markedly decreased”.
